Results published in patent US9597407B2, “Targeted antimicrobial moieties” (C3 Jian, Inc., priority 2009, dated 2017).
“Also recorded” adds a separate entry of the source.

Assays:
[1] = test system: microorganisms; experiment: Morphology, biofilm and growth disruption by peptides (Table 5); format: cell-based; set-up: key: A: Peptide aggregates; B: Less hyphal formation; Clumps; Diffuse clumps and small polyps; F: Diffuse growth; H: Thin; I: Growth inhibition; Microcolony formation; Rippled; Small polyps; Thick; W: Halo formation on top, microlonies on bottom
From the text: In certain embodiments peptides that induce alterations in phenotype or other biological activities can also be used as antimicrobial effector moieties.

[2] = test system: microorganisms; experiment: Peptide activities: binding, antimicrobial, growth or phenotype altering (Table 8)
From the text: In certain embodiments, peptides described herein can have multiple activities. Thus for example, a peptide can have both binding/targeting activity and antimicrobial activity. Such peptides can be used, e.g., in a chimeric construct, for any or all of these properties. Thus, for example, a peptide designated “B” in Table 8 can be used as a targeting peptide. If it is also designated G or M it can also be used for antimicrobial activity.

[3] = test system: bacteria; experiment: Binding of targeting peptides to microorganisms (Table 3); conditions: preferably 1x PBS; for Target(s): microorganism bound by the targeting peptide, binding in aqueous buffers chosen by peptide solubility
[4] = peptide binding in aqueous buffers that varied depending on peptide solubility

Substance: PF-357 (MLTIIIGFIFWTMTLMLGYLIGEREGRKHE; Peptide with targeting and/or antimicrobial activity)
- Organism, effect ([1]; M. luteus): M. luteus (C)
- Organism, effect ([1]; MRSA): MRSA (M)
- Organism, effect ([1]; S. epidermidis): S. epidermidis (M)
- Organism, effect ([1]; S. pneumoniae): S. pneumoniae (M)
- Activities [2]: G B

Substance: PF-380 (KKIIPLITLFVVTLVG; Peptide with targeting and/or antimicrobial activity)
- Organism, effect ([1]; C. jejuni): C. jejuni (D)
- Organism, effect ([1]; E. coli): E. coli (C)
- Organism, effect ([1]; E. faecalis): E. faecalis (C)
- Organism, effect ([1]; MRSA): MRSA (D)
- Organism, effect ([1]; P. aeruginosa): P. aeruginosa (A)
- Organism, effect ([1]; S. epidermidis): S. epidermidis (C)
- Organism, effect ([1]; S. pneumoniae): S. pneumoniae (D)
- Activities [2]: G B

Substance: PF-475 (MREKVRFTQAFKLFWTNYFNFKGRSRRSEY; Peptide with targeting and/or antimicrobial activity)
- Organism, effect (morphology, biofilm and growth disruption) ([1]; C. albicans): C. albicans (B)
- Organism, effect (morphology, biofilm and growth disruption) ([1]; C. jejuni): C. jejuni (R)
- Organism, effect (morphology, biofilm and growth disruption) ([1]; E. faecalis): E. faecalis (R)
- Organism, effect (morphology, biofilm and growth disruption) ([1]; MRSA): MRSA (S)
- Organism, effect (morphology, biofilm and growth disruption) ([1]; S. epidermidis): S. epidermidis (M)
- Organism, effect (morphology, biofilm and growth disruption) ([1]; S. pneumoniae): S. pneumoniae (R)
- Activities [2]: G B

Substance: PF-465 (KPVGKALEEIADGKIEPVVPKEYLG; Peptide with targeting and/or antimicrobial activity)
- Organism, effect (morphology, biofilm and growth disruption) ([1]; S. pneumoniae): S. pneumoniae (H)
- Activities [2]: G B

Substance: PF-479 (AYILKRREEKNK; Peptide with targeting and/or antimicrobial activity)
- Organism, effect (morphology, biofilm and growth disruption) ([1]; S. pneumoniae): S. pneumoniae (C)
- Activities [2]: G B

Substance: PF-619 (chain 1 WSRVPGHSDTGWKVWHRW; chain 2 WSRVPGHSDTGWKVWHRW; Peptide with targeting and/or antimicrobial activity)
- Organism, effect (morphology, biofilm and growth disruption) ([1]; E. coli): E. coli (C)
- Organism, effect (morphology, biofilm and growth disruption) ([1]; MRSA): MRSA (M)
- Organism, effect (morphology, biofilm and growth disruption) ([1]; S. epidermidis): S. epidermidis (M)
- Organism, effect (morphology, biofilm and growth disruption) ([1]; S. pneumoniae): S. pneumoniae (C)
- Activities [2]: G B

Substance: PF-696 (chain 1 IRSGISAAYARPLR; chain 2 IRSGISAAYARPLR; Peptide with targeting and/or antimicrobial activity)
- Target(s) (microorganism bound by the targeting peptide) [3, 4]: Mycobacteria spp
- Organism, effect (morphology, biofilm and growth disruption) ([1]; S. pneumoniae): S. pneumoniae (H)

Substance: PF-687 (chain 1 AKRVLSLAVAPHRRQPVQGT; chain 2 AKRVLSLAVAPHRRQPVQGT; Peptide with targeting and/or antimicrobial activity)
- Target(s) (microorganism bound by the targeting peptide) [3, 4]: Mycobacteria spp
- Organism, effect (morphology, biofilm and growth disruption) ([1]; S. pneumoniae): S. pneumoniae (A)

Substance: PF-607 (YIESDPRKFDYIFGAIRDH; Peptide with targeting and/or antimicrobial activity)
- Target(s) (microorganism bound by the targeting peptide) [3, 4]: S. epidermidis and P. mirabilis and E. coli and MRSA and S. pneumoniae and C. jeikeium
- Organism, effect (morphology, biofilm and growth disruption) ([1]; C. jejuni): C. jejuni (R)
- Organism, effect (morphology, biofilm and growth disruption) ([1]; E. faecalis): E. faecalis (A)
- Organism, effect (morphology, biofilm and growth disruption) ([1]; MRSA): MRSA (S)
- Organism, effect (morphology, biofilm and growth disruption) ([1]; S. epidermidis): S. epidermidis (M)
- Organism, effect (morphology, biofilm and growth disruption) ([1]; S. pneumoniae): S. pneumoniae (R)

Substance: PF-276 (LDLALSTNSLNLEGFSF; Peptide with targeting and/or antimicrobial activity)
- Target(s) [3]: S. epidermidis
- Organism, effect ([1]; M. luteus): M. luteus (M)

Substance: PF-677 (chain 1 TCRGAGMH; chain 2 TCRGAGMH; Peptide with targeting and/or antimicrobial activity)
- Target(s) (microorganism bound by the targeting peptide) [3, 4]: Mycobacteria spp
- Organism, effect (morphology, biofilm and growth disruption) ([1]; E. faecalis): E. faecalis (R)
- Organism, effect (morphology, biofilm and growth disruption) ([1]; MRSA): MRSA (D)
- Organism, effect (morphology, biofilm and growth disruption) ([1]; S. epidermidis): S. epidermidis (R)
- Organism, effect (morphology, biofilm and growth disruption) ([1]; S. pneumoniae): S. pneumoniae (D)

Substance: PF-417 (DSYFRS; Peptide with targeting and/or antimicrobial activity)
- Target(s) (microorganisms bound by the targeting peptide) [3, 4]: S. epidermidis; also recorded: C. jeikeium; also recorded: C. jejuni
- Organism, effect ([1]; MRSA): MRSA (M)
- Organism, effect ([1]; S. epidermidis): S. epidermidis (M)
- Organism, effect ([1]; S. pneumoniae): S. pneumoniae (M)

Substance: PF-688 (chain 1 ARNHAVIPAG; chain 2 ARNHAVIPAG; Peptide with targeting and/or antimicrobial activity)
- Target(s) (microorganism bound by the targeting peptide) [3, 4]: Mycobacteria spp
- Organism, effect (morphology, biofilm and growth disruption) ([1]; S. pneumoniae): S. pneumoniae (A)

Substance: PF-255 (DHKINESQHNPFRSDSNKQNVDFF; Peptide with targeting and/or antimicrobial activity)
- Target(s) [3]: P. aeruginosa
- Organism, effect ([1]; M. luteus): M. luteus (M)

Substance: PF-C084 (FFSVIFLFGLNYLICNSPLFNILR; Peptide with targeting and/or antimicrobial activity)
- Target(s) (microorganism bound by the targeting peptide) [3, 4]: A. naeslundii; also recorded: F. nucleatum; also recorded: P. gingivalis; also recorded: S. mutans
- Organism, effect (morphology, biofilm and growth disruption) ([1]; F. nucleatum): F. nucleatum (T)
- Organism, effect (morphology, biofilm and growth disruption) ([1]; P. gingivalis): P. gingivalis (R)
- Organism, effect (morphology, biofilm and growth disruption) ([1]; S. mutans): S. mutans (F)

Substance: PF-629 (chain 1 GLAAIATVFALY; chain 2 GLAAIATVFALY; Peptide with targeting and/or antimicrobial activity)
- Target(s) (microorganism bound by the targeting peptide) [3, 4]: S. epidermidis and P. aeruginosa and C. albicans and MRSA and S. pneumoniae and E. faecalis and C. jeikeium
- Organism, effect (morphology, biofilm and growth disruption) ([1]; C. jeikeium): C. jeikeium (R)
- Organism, effect (morphology, biofilm and growth disruption) ([1]; E. faecalis): E. faecalis (R)
- Organism, effect (morphology, biofilm and growth disruption) ([1]; MRSA): MRSA (D)
- Organism, effect (morphology, biofilm and growth disruption) ([1]; S. epidermidis): S. epidermidis (C)
- Organism, effect (morphology, biofilm and growth disruption) ([1]; S. pneumoniae): S. pneumoniae (M)

Substance: PF-632 (chain 1 TTIQGVASLEKHGFRYTIIYPTRI; chain 2 TTIQGVASLEKHGFRYTIIYPTRI; Peptide with targeting and/or antimicrobial activity)
- Target(s) (microorganism bound by the targeting peptide) [3, 4]: S. epidermidis and P. aeruginosa and C. albicans and MRSA and S. pneumoniae and E. faecalis and C. jeikeium
- Organism, effect (morphology, biofilm and growth disruption) ([1]; B. subtilis): B. subtilis (H)
- Organism, effect (morphology, biofilm and growth disruption) ([1]; C. albicans): C. albicans (B)
- Organism, effect (morphology, biofilm and growth disruption) ([1]; C. jeikeium): C. jeikeium (D)
- Organism, effect (morphology, biofilm and growth disruption) ([1]; E. faecalis): E. faecalis (D)
- Organism, effect (morphology, biofilm and growth disruption) ([1]; MRSA): MRSA (D)
- Organism, effect (morphology, biofilm and growth disruption) ([1]; S. epidermidis): S. epidermidis (D)
- Organism, effect (morphology, biofilm and growth disruption) ([1]; S. pneumoniae): S. pneumoniae (M)

Substance: PF-271 (AAQPQTTSP; Peptide with targeting and/or antimicrobial activity)
- Target(s) [3]: S. epidermidis; also recorded: M. luteus; also recorded: P. aeruginosa; also recorded: A. baumannii
- Organism, effect ([1]; M. luteus): M. luteus (T)

Substance: PF-C145 (YGKESDP; Peptide with targeting and/or antimicrobial activity)
- Target(s) (microorganism bound by the targeting peptide) [3, 4]: A. naeslundii; also recorded: F. nucleatum; also recorded: P. gingivalis; also recorded: S. mutans; also recorded: T. denticola
- Organism, effect (morphology, biofilm and growth disruption) ([1]; F. nucleatum): F. nucleatum (C)
- Organism, effect (morphology, biofilm and growth disruption) ([1]; S. mutans): S. mutans (I)
